Values of other authors in patent publication US20100008998A1, “SUBMICRON NANOPARTICLE OF POORLY WATER SOLUBLE CAMPTOTHECIN DERIVATIVES AND PROCESS FOR PREPARATION THEREOF” (SAMYANG CORPORATION, priority 2006, published 2010).
Read-outs that look alike come from different tables or passages of the source.

Assays:
[1] = in the human body
[2] = not given; remark: listed apart in the source
topoisomerase I = target: T1, topoisomerase I (Homo sapiens, UniProt P11387)
T1 sequence (P11387 1-765): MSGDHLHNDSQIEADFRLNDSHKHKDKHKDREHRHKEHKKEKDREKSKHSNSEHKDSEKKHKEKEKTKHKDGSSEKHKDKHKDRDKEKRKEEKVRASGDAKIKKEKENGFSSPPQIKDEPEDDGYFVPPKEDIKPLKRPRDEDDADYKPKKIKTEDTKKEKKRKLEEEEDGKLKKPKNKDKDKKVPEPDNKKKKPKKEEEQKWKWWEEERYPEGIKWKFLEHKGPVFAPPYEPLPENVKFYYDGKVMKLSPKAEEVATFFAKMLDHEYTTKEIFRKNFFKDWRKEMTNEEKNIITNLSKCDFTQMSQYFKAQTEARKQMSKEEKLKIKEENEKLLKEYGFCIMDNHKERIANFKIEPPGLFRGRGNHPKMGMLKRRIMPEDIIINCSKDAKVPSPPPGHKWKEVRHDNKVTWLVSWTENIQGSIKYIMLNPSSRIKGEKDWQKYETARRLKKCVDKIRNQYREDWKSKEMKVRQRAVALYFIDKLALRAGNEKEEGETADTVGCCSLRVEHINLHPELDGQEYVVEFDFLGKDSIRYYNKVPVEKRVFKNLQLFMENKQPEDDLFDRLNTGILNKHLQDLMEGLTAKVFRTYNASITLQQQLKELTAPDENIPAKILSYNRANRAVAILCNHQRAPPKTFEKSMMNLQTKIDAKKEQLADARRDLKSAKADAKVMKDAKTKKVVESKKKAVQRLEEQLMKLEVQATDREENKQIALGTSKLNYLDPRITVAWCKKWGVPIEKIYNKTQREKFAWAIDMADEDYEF

Row | conversion rate of CPT-11 into the active SN-38 [1] [%] | SMILES | better in in vitro cytotoxicity compared to CPT-11 | water solubility [2] [µg/mL] | water solubility ([2]; active lactone form) [µg/mL] | can be dissolved in water in the amounts of ([2]; carboxy anion form) [mg/mL] | better in suppressing the activity of topoisomerase I compared to CPT-11 (topoisomerase I)
1 | ≤ 10 | CCc1c2c(nc3ccc(OC(=O)N4CCC(N5CCCCC5)CC4)cc13)-c1cc3c(c(=O)n1C2)COC(=O)[C@]3(O)CC [CPT-11] |  |  |  |  | 
2 |  | CCc1c2c(nc3ccc(O)cc13)-c1cc3c(c(=O)n1C2)COC(=O)[C@]3(O)CC [SN-38, 7-Ethyl-10-hydroxycamptothecin] | ≥ 2,000 times | ≤ 10 | ≤ 10 | ≥ 4 | ≥ 1,000 times
